We go through 26 compounds from patent US12448371B2, “Inhibitor compounds” (Cincera Therapeutics Pty Ltd, priority 2019, dated 2025).

The target of this experiment is T1, Des1 (h) (Homo sapiens, UniProt O15121).
T1 construct: endogenous in cells; host or cells: parental Jurkat cells
T1 sequence (O15121 1-323): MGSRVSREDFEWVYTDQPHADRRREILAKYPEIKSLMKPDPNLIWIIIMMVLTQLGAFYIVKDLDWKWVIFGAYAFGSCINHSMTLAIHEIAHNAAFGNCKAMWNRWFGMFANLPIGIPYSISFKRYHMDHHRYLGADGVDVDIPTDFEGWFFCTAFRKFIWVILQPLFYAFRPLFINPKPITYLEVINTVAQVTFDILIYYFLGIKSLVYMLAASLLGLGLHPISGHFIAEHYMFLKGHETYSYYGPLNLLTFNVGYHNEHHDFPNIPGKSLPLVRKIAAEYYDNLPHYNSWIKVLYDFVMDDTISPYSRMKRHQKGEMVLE
In words: Measurement of Dihydroceramide Desaturase-1 (Des-1) activity in intact Jurkat cells labeled with DhCer-C6-NBD (HPLC). The note with it: for IC50: intact Jurkat cells, given as concentration range, or <X / >X if measured at one concentration X only, read-out: Des1 (h) Jurkat IC50. The class given is cell-based. As for the experimental part:
Measurement of Dihydroceramide Desaturase-1 (Des-1) Activity
Compounds were assessed for Des-1 inhibitory activity. Measurement of Des1 activity was performed by HPLC using intact Jurkat cells labeled with DhCer-C6-NBD as described previously (Munoz-Olaya, J. M. et al. ChemMedChem 2008, 3, 946-953) with modifications to enhance sensitivity and reproducibility. These modifications included the use of parental Jurkat cells, 0.5% serum in the culture media, and cell harvesting via centrifugation at 500×g to maximise ceramide extraction. Extracted samples (50 ul) were analysed on a Waters HPLC coupled to a fluorescence detector using a 30 cm C18 reverse-phase column eluted with 1 ml/min 20% H2O and 80% acetonitrile, both with a 0.1% of trifluoroacetic acid. NBD-labelled substrate and product were quantitated with an excitation and emission wavelengths of 465 nm and 530 nm, respectively.

Where a name gives a salt, the structure may show the parent alone.

For orientation: inhibition means how much of the control response was suppressed. High values mean strong suppression, low ones little suppression. One may read the IC50 as the point on the concentration scale where inhibition reaches its midpoint. In the case of `N/C(=N/O)c1ccc(Nc2ncc(-c3cnc(C(F)(F)F)cn3)o2)cn1` [Example 66, N′-Hydroxy-5-((5-(5-(trifluoromethyl)pyrazin-2-yl)oxazol-2-yl)amino)picolinimidamide], the IC50 was more than 1000 nM. Moreover, testing at 1 µM (Jurkat cells) gave an inhibition of 47%. Take `Cn1nc(-c2ccc(C(F)(F)F)cc2)cc1Nc1ccc(/C(N)=N\O)nc1` [Example 77, N′-Hydroxy-5-((1-methyl-3-(4-(trifluoromethyl)phenyl)-1H-pyrazol-5-yl)amino)picolinimidamide]: the IC50 is more than 1000 nM. Testing at 1 µM (Jurkat cells) gave an inhibition of 47%. Take `Cn1nc(Nc2cnc(/C(N)=N/O)cn2)cc1-c1ccc(C(F)(F)F)cn1` [Compound 110, N′-Hydroxy-5-((1-methyl-5-(5-(trifluoromethyl)pyridin-2-yl)-1H-pyrazol-3-yl)amino)pyrazine-2-carboximidamide]: the IC50 is more than 1000 nM. Testing at 1 µM (Jurkat cells) gave an inhibition of 31%. For the compound `O=C(NO)c1ccc(Nc2nc(-c3ccc(C(F)(F)F)cc3)co2)nn1` [Example 13, N-Hydroxy-6-((4-(4-(trifluoromethyl)phenyl)oxazol-2-yl)amino)pyridazine-3-carboxamide], the IC50 is 1000 to 10000 nM. The same measure, in the same setting: then `N=C(NO)c1ccc(Nc2nnc(-c3ccc(C(F)(F)F)c(F)c3)o2)cn1` [Example 6, 5-((5-[3-Fluoro-4-(trifluoromethyl)phenyl]-1,3,4-oxadiazol-2-yl)amino)-N-hydroxypyridine-2-carboximidamide], with 100 to 1000 nM. For `O=C(NCC(O)CO)c1ccc(Nc2cnn(-c3ccc(C(F)(F)F)cn3)c2)cn1` (racemic) [Compound 104, rac-N-(2,3-Dihydroxypropyl)-5-((1-(5-(trifluoromethyl)pyridin-2-yl)-1H-pyrazol-4-yl)amino)picolinamide], the IC50 is more than 1000 nM. In addition, 1 µM produced 26% inhibition (Jurkat cells). For `N/C(=N/O)c1ccc(Nc2nnc(-c3ccc(Cl)cn3)o2)cn1` [Example 71, 5-((5-(5-Chloropyridin-2-yl)-1,3,4-oxadiazol-2-yl)amino)-N′-hydroxypicolinimidamide], the IC50 is more than 1000 nM. Besides, the inhibition at 1 µM (Jurkat cells) was determined as 13%. As for `N/C(=N\O)c1cnc(Nc2ncc(-c3ccc(C(F)(F)F)cc3)o2)nc1` [Example 63, N′-Hydroxy-2-((5-(4-(trifluoromethyl)phenyl)oxazol-2-yl)amino)pyrimidine-5-carboximidamide], the IC50 is more than 1000 nM. The inhibition at 1 µM (Jurkat cells) is 23%. For the compound `N/C(=N\O)c1ccc(Nc2ncc(-c3ccc(C(F)(F)F)c(F)c3)o2)cn1` [Example 45, 5-((5-(3-Fluoro-4-(trifluoromethyl)phenyl)oxazol-2-yl)amino)-N′-hydroxypicolinimidamide], the IC50 was less than 100 nM. Regarding `N/C(=N\O)c1ccc(Nc2nc(-c3ccc(OC(F)(F)F)cn3)no2)cn1` [Example 88, N′-hydroxy-5-((3-(5-(trifluoromethoxy)pyridin-2-yl)-1,2,4-oxadiazol-5-yl)amino)picolinimidamide], the IC50 was more than 1000 nM. Also, the inhibition at 1 µM (Jurkat cells) came to 29%. Regarding `Cc1cc(Nc2ncc(-c3ccc(C(F)(F)F)cc3)o2)cc(=O)n1O` [Example 27, 1-Hydroxy-6-methyl-4-((5-(4-(trifluoromethyl)phenyl)oxazol-2-yl)amino)pyridin-2(1H)-one], the IC50 is 0.1 to 1 nM. As to `N/C(=N\O)c1ccc(Nc2nc(-c3ccc(Cl)cn3)no2)cn1` [Example 80, 5-((3-(5-Chloropyridin-2-yl)-1,2,4-oxadiazol-5-yl)amino)-N′-hydroxypicolinimidamide], the IC50 is more than 1000 nM. Under “Jurkat cells”, this compound showed an inhibition at 1 µM of 24%. `O=C(NC[C@@H](O)CO)c1ccc(Nc2ncc(-c3ccc(C(F)(F)F)cc3)o2)nn1` [Example 41, (R)—N-(2,3-Dihydroxypropyl)-6-((5-(4-(trifluoromethyl)phenyl)oxazol-2-yl)amino)-pyridazine-3-carboxamide]: the IC50 was less than 100 nM.

Regarding `N/C(=N\O)c1ncc(Nc2ncc(-c3ccc(C(F)(F)F)cn3)o2)cc1O` [Example 40, N′,3-Dihydroxy-5-((5-(5-(trifluoromethyl)pyridin-2-yl)oxazol-2-yl)amino)picolinimidamide hydrochloride], the IC50 was 10 to 100 nM.

Regarding `N/C(=N\O)c1cnc(Nc2nc(-c3ccc(Cl)cn3)no2)cn1` [Example 81, 5-((3-(5-Chloropyridin-2-yl)-1,2,4-oxadiazol-5-yl)amino)-N′-hydroxypyrazine-2-carboximidamide], the IC50 is more than 1000 nM. Under “Jurkat cells”, this compound gave an inhibition at 1 µM of 7%. As to `N/C(=N\O)c1ccc(Nc2ncc(-c3ccc(OC(F)F)cc3)o2)cn1` [Example 51, 5-((5-(4-(Difluoromethoxy)phenyl)oxazol-2-yl)amino)-N′-hydroxy picolinimidamide], the IC50 fell in the range of 100 to 1000 nM.

`N/C(=N\O)c1ccc(Nc2ncc(-c3ccc(C(F)(F)F)nn3)o2)cn1` [Compound 119, N′-Hydroxy-5-((5-(6-(trifluoromethyl)pyridazin-3-yl)oxazol-2-yl)amino)picolinimidamide]: the IC50 was more than 1000 nM. For the setting “Jurkat cells”, the inhibition at 1 µM was 44%.

As to `N/C(=N\O)c1ccc(Nc2nc(-c3ccc(C(F)(F)F)cc3)co2)cn1` [Example 60, N′-Hydroxy-5-((4-(4-(trifluoromethyl)phenyl)oxazol-2-yl)amino)picolinimidamide], the IC50 was less than 1000 nM. Still for that read-out and setting: then `Oc1ccc(Nc2ncc(-c3ccc(OC(F)(F)F)cc3)o2)nc1` [Compound 105, 6-((5-(4-(Trifluoromethoxy)phenyl)oxazol-2-yl)amino)pyridin-3-ol], with less than 1000 nM. With `Oc1ccc(Nc2ncc(-c3ccc(C(F)(F)F)cc3)o2)nc1` [Example 18, 6-((5-(4-(Trifluoromethyl)phenyl)oxazol-2-yl)amino)pyridin-3-ol], the half-maximal inhibitory concentration (IC50) was less than 1000 nM. For the compound `O=C(NO)c1ccc(Nc2ncc(-c3ccc(Cl)cc3)o2)cn1` [Example 1, 5-((5-(4-Chlorophenyl)oxazol-2-yl)amino)-N-hydroxypicolinamide], the IC50 was in the range of 100 to 1000 nM. Turning to `O=C(NC[C@@H](O)CO)c1ccc(Nc2ncc(-c3ccc(F)c(F)c3)o2)cn1` [Compound 97, (R)-5-((5-(3,4-Difluorophenyl)oxazol-2-yl)amino)-N-(2,3-dihydroxypropyl)picolinamide], the “% inhibition of Des1 at 0.1 μM” value (Jurkat cells, 0.1 μM) is 55%. For `N=C(NO)c1cc(Nc2ncc(-c3ccc(C(F)(F)F)cc3)o2)ncc1O` [Example 50, N,5-Dihydroxy-2-((5-(4-(trifluoromethyl)phenyl)oxazol-2-yl)amino)isonicotinimid-amide], the IC50 is less than 1000 nM. `O=C(NCC(O)CO)c1ccc(Nc2ncc(-c3ccc(C(F)(F)F)cc3)o2)cn1` (racemic) [Example 17, rac-N-(2,3-Dihydroxypropyl)-5-((5-[4-(trifluoromethyl)phenyl]-1,3-oxazol-2-yl)amino) picolinamide]: the IC50 is 1 to 10 nM.

As to `O=C(NO)c1ncc(Nc2ncc(-c3ccc(C(F)(F)F)cc3)o2)cn1` [Example 10], the IC50 lay within 1000 to 10000 nM.

Turning to `N/C(=N\O)c1ccc(Nc2ncc(-c3ccc(C(F)(F)F)cn3)o2)nn1` [Example 61, N′-hydroxy-6-((5-(5-(trifluoromethyl)pyridin-2-yl)oxazol-2-yl)amino)pyridazine-3-carboximidamide], the IC50 is less than 100 nM.
